# In PubChem BioAssay (NCI):
# Values joined by “and” are separate entries in the source; they are usually repeats but may differ in a detail not shown here. Equal values may be shown once.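 Five concentrations, 48 hours, 96-well plates. The concentration for 50% growth inhibition is given as GI50. TGI is the concentration that stops growth completely.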
# What was measured:
# Assay in all cases: NCI tumour cell line growth inhibition, 48 h
# DLD-1 colon = test system: DLD-1 colon
# HOP-18 NSCLC = test system: HOP-18 NSCLC
# LXFL 529 NSCLC = test system: LXFL 529 NSCLC
# M19-MEL melanoma = test system: M19-MEL melanoma
# RXF-631 renal = test system: RXF-631 renal
# SNB-78 CNS = test system: SNB-78 CNS
# XF 498 CNS = test system: XF 498 CNS
# DMS 114 small cell lung = test system: DMS 114 small cell lung
# MDA-N = test system: MDA-N
# P388 leukemia = test system: P388 leukemia
# P388/ADR leukemia = test system: P388/ADR leukemia
# SN12K1 renal = test system: SN12K1 renal
Compound,TGI (DLD-1 colon),TGI (HOP-18 NSCLC) [µM],TGI (LXFL 529 NSCLC),TGI (M19-MEL melanoma),TGI (SNB-78 CNS) [µM],TGI (XF 498 CNS) [µM],TGI (DMS 114 small cell lung) [µM],TGI (MDA-N) [µM],other results
CC(=O)OCC1OC(OCc2ccccc2)C(Br)C(OC(C)=O)C1OC(C)=O (stereo not drawn),> 100 µM,> 100,> 100 µM,> 100 µM,> 100,> 100,–,–,TGI (RXF-631 renal): > 100 µM
Clc1ccc(OCc2nnc3n2N=C(c2ccc(Br)cc2)CS3)cc1,–,–,70.3 µM,> 100 µM,81.1,21.4,54,–,–
C(=Nc1cnc2ccccc2c1)c1ccc2ccccc2n1,–,–,–,–,–,–,–,> 100,–
O=Cc1c(-c2ccccc2)[nH]c2ccccc2c1=O,–,–,–,–,–,–,–,34.2,–
COc1ccc(S(=O)(=O)N[C@H](C(=O)O)c2ccccc2)cc1,> 100 µM,> 100,> 100 µM,> 100 µM,> 100,> 100,> 100,–,–
COC1[C@H](NC(=O)OC(C)(C)C)C(=O)N1Cc1ccccc1 (stereo partly drawn),> 100 µM,–,> 100 µM,> 100 µM,> 100,> 100,> 100,–,–
COc1cccc(/C=C/c2ccnc3ccccc23)c1OC,–,–,–,–,–,–,–,> 10,–
O=C(CCl)Nc1cc(Cl)c(Cl)cc1Cl,–,–,–,–,–,–,–,3.19,–
COc1cc(/C=C/c2ccc(Br)cc2)cc(OC)c1OC,> 100 µM,> 74.6,> 100 µM,> 71.5 µM,–,65.9,52.8,–,TGI (RXF-631 renal): > 75.4 µM
COc1cc(-c2ccc(NC(=O)SCCC(=O)O)cc2OC)ccc1NC(=O)SCCC(=O)O,–,–,> 100 µM,> 100 µM,> 100,> 100,> 100,–,–
Cc1cc(C)c2c(c1)N[S@@](=O)S2,59.2 µM,92.1,29.4 µM,46.7 µM,> 100,50.1,38.7,–,–
COC1OC(CBr)C(OC(=O)c2ccccc2)C(OS(=O)(=O)c2ccc(C)cc2)C1Br (stereo not drawn),–,–,> 100 µM,> 100 µM,> 100,–,–,–,–
O=C1C2c3[nH]c4ccccc4c3C3CCCCCC3C2C(=O)N1c1ccccc1 (stereo not drawn),> 100 µM,> 60.4,> 100 µM,> 100 µM,70.7,47.4,> 100,–,–
CC(=O)[CH-]C(=O)c1ccccc1.CC(=O)[CH-]C(=O)c1ccccc1.CC(C)CCC[C@H](C)C1CCC2[C@@H]3CC=C4C[C@@H]([O-])CC[C@]4(C)C3CC[C@@]21C.CC(C)CCC[C@H](C)C1CCC2[C@@H]3CC=C4C[C@@H]([O-])CC[C@]4(C)C3CC[C@@]21C.Cl.[Ti+4] (stereo partly drawn),> 25 µM,> 25,> 25 µM,–,–,–,–,–,GI50 (DLD-1 colon): > 25 µM; GI50 (HOP-18 NSCLC): > 25 µM; GI50 (LXFL 529 NSCLC): > 25 µM
COc1cc2c(cc1O)CN1CCC23C=C[C@@H](O)CC13 (stereo partly drawn),> 100 µM,> 100,> 100 µM,> 100 µM,> 100,–,> 100,–,–
COC(=O)C1C(=O)O[C@@H](c2ccc(OC)c(OC)c2OC)C1C(=O)OC (mixture of isomers),> 100 µM,–,> 100 µM,> 100 µM,> 100,> 100,> 100,–,TGI (RXF-631 renal): > 100 µM
CC1CCC(=O)C(C(O)CC2CC(=O)N(c3ccccc3)C(=O)C2)C1 (stereo not drawn),> 100 µM,> 100,> 100 µM,> 100 µM,> 100,–,> 100,–,–
Cc1cc(=O)n(-c2c(C)cccc2Cl)c(/C=C(\O)c2ccncc2)n1,> 100 µM,> 100,> 100 µM,–,> 100,–,> 100,–,TGI (RXF-631 renal): > 100 µM
CCN(CC)c1ccc(C2NC(=O)c3ccccc3N2)cc1 (stereo not drawn),–,–,–,–,–,–,–,2.55,–

Compound,TGI (DLD-1 colon),TGI (HOP-18 NSCLC) [µM],TGI (LXFL 529 NSCLC),TGI (M19-MEL melanoma),TGI (SNB-78 CNS) [µM],TGI (XF 498 CNS) [µM],TGI (DMS 114 small cell lung) [µM],TGI (MDA-N) [µM],other results
COc1ccc2c(c1)[n+](=O)c(C(=O)C/C(=N/NC(=O)C[N+](C)(C)C)C(=O)Nc1cccc(C)c1C)c(C)n2O,> 100 µM,> 100,> 100 µM,> 100 µM,> 100,–,> 100,–,TGI (RXF-631 renal): > 100 µM
CN(NC1OC(CO)C(O)C(O)C1O)c1ccccc1 (stereo not drawn),> 100 µM,> 100,> 100 µM,> 100 µM,> 100,30.6,–,–,–
CN(C)CCn1cnc2ncccc2c1=O,> 100 µM,–,> 100 µM,> 100 µM,> 100,> 100,> 100,–,–
O=C(COc1ccc(OCC(=O)N2C(=O)CN(c3ccccc3)C2=S)cc1)N1C(=O)CN(c2ccccc2)C1=S,–,–,–,–,–,–,–,> 100,GI50 (MDA-N): > 25 µM
O=C(O)c1c(Cl)c(Cl)c(Cl)c(Cl)c1C(=O)Nc1ccc2cn[nH]c2c1,–,–,–,–,–,–,–,> 100,–
CCCCCCCCCCCCCCCCc1c(C(=O)OC)nc(NN)[nH]c1=O,> 50 µM,> 50,> 50 µM,> 50 µM,> 50,> 50,> 50,–,TGI (RXF-631 renal): > 50 µM
CN(C)Cc1ccc(C(C)(C)C)cc1-c1cc(C(C)(C)C)ccc1CN(C)C,–,–,–,–,–,–,–,> 100,–
CC(=O)Nc1ccc(/C=C2\N=C(c3ccccc3)OC2=O)cc1,> 100 µM,> 100,> 100 µM,–,–,–,> 100,–,–
O=C(N/C(=C\c1ccccc1Cl)c1nc2ccccc2[nH]1)c1ccccc1,> 100 µM,–,> 100 µM,> 100 µM,> 100,57.5,> 100,–,TGI (RXF-631 renal): > 100 µM
O=C1C=CC(=Nc2cccc3c(N=C4C=CC(=O)O4)cccc23)O1,–,–,–,–,–,–,–,69.1,–
CCOC(=O)C(NO)C(Sc1ccccc1)c1ccc(OC)cc1 (stereo not drawn),> 100 µM,> 100,> 100 µM,> 100 µM,> 100,> 100,> 100,–,–
CCOc1ccc(OCC)c([P+](c2ccccc2)(c2ccccc2)c2ccccc2)c1,16 µM,6.22,10.4 µM,16.3 µM,> 100,0.542,3.18,–,TGI (RXF-631 renal): 51.4 µM
COc1ccc2nc3cc([N+](=O)[O-])ccc3c(NNc3ccccc3)c2c1,–,–,–,–,–,–,–,> 100,–
CN(C)C(=O)NC(=S)N(C)C,> 100 µM,> 100,> 100 µM,> 100 µM,> 100,> 100,> 100,–,–
CC(=O)OC(C)(C)/C=C/C(=O)[C@](C)(O)[C@H]1[C@H](O)C[C@@]2(C)[C@@H]3CC=C4[C@@H](C=C(O)C(=O)C4(C)C)[C@]3(C)C(=O)C[C@]12C,4.25 µM and 4.43 µM and 2.19 µM,–,0.305 µM and 0.385 µM,4.2 µM and 3.01 µM and 3.43 µM,–,–,–,1.57,GI50 (LXFL 529 NSCLC): 0.018 µM; GI50 (P388 leukemia): 0.0895 µM; TGI (P388 leukemia): 2.32 µM and 14.3 µM; GI50 (P388/ADR leukemia): 0.175 µM; TGI (P388/ADR leukemia): 3.04 µM and 2 µM; GI50 (RXF-631 renal): 0.018 µM; TGI (RXF-631 renal): 0.434 µM and 0.152 µM; GI50 (SN12K1 renal): 0.0155 µM; TGI (SN12K1 renal): 0.287 µM and 0.0604 µM
CC1=C(C(=O)NCc2ccccc2)C(c2ccccc2C)C(C(=O)NCc2ccccc2)=C(C)N1,51.3 µM,> 91.2,> 95.9 µM,> 75.8 µM,> 100,–,> 67.7,–,TGI (RXF-631 renal): > 100 µM
COc1cccc2nc3ccccc3nc12,–,–,–,–,–,–,–,> 100,–
C[C@H](CS)C(=O)N1c2ccccc2C[C@H]1C(=O)O,–,–,–,–,–,–,–,> 100,–
